From patent US11629331B2, “Method of differentiation of human induced pluripotent stem cell to dermal papilla precursor cell and use thereof” (SEOUL NATIONAL UNIVERSITY R & DB FOUNDATION, priority 2017, dated 2023)

Tested on: neural crest stem cells
Experiment: Flow cytometry (SDC1, CD133) of differentiation of neural crest stem cells into dermal papilla precursor cells
Format: cell-based, human
Conditions: CHIR-99021 at 0.1 μM, 1 μM and 10 μM with bFGF and BMP4; after about 2 weeks
Text: To develop a dermal papilla precursor cell medium composition for inducing differentiation of dermal papilla precursor cells from neural crest stem cells, the possibility of differentiation into dermal papilla precursor cells was examined by treatment with several factors alone known as vital materials for dermal papilla cell differentiation or a combination thereof. To confirm differentiation into dermal papilla precursor cells, mouse anti-human SDC1 and CD133/2 antibodies were stained using PBS supplemented with 2% FBS, and then the stained cells were analyzed using a flow cytometer (BD Biosciences). A DMEM/[…]) (Reference 1) (Thermo Fisher, catalog no. […] To determine the role of a GSK-3 inhibitor as a WNT signal activator in the dermal papilla precursor cell medium composition for inducing differentiation of dermal papilla precursor cells from neural crest stem cells, the possibility of differentiation into dermal papilla precursor cells was examined by treatment with not only 6-bromoindirubin-3'-oxime (BIO) but also CHIR-99021 at 0.1 μM, 1 μM, and 10 μM. To confirm the possibility of differentiation into dermal papilla precursor cells, mouse anti-human SDC1 and CD133/2 antibodies were stained using PBS supplemented with 2% FBS, and then the stained cells were analyzed using a flow cytometer (BD Biosciences). A DMEM/[…]) (Reference 1) (Thermo Fisher, catalog no. […]

With `Cc1c[nH]c(-c2cnc(NCCNc3ccc(C#N)cn3)nc2-c2ccc(Cl)cc2Cl)n1` [CHIR-99021] the “differentiation efficiency into dermal papilla precursor cells (SDC1, CD133 flow cytometry)” value was “differentiation efficiency increased according to the concentration”.
